Assay results reported in ChEMBL document CHEMBL2434881, “Design and evaluation of novel 8-oxo-pyridopyrimidine Jak1/2 inhibitors” (Bioorg Med Chem Lett, 2013).
≈ marks a conversion by molar mass, not a printed value.

Assay: Aqueous kinetic solubility of the compound in PBS buffer at pH 7.4
Type: physicochemical
Conditions: read-out: Kinetic_solubility

| solubility kinetic | Compound |
| --- | --- |
| 119 µM (≈ 30.4 µg/mL) | N#CC1CCCC1Nc1ncnc2c(=O)[nH]ccc12 (single isomer, unassigned; enantiomer 1) |
| 104 µM (≈ 26.5 µg/mL) | N#C[C@H]1CCC[C@H]1Nc1ncnc2c(=O)[nH]ccc12 (racemic) |
| 74 µM (≈ 21 µg/mL) | CNc1nc(N[C@@H]2CCC[C@@H]2C#N)c2cc[nH]c(=O)c2n1 (racemic) |
| 19 µM (≈ 6.24 µg/mL) | CN(CCO)c1nc(N[C@@H]2CCC[C@@H]2C#N)c2cc[nH]c(=O)c2n1 (racemic) |
| 140 µM (≈ 39.7 µg/mL) | CCc1nc(N[C@@H]2CCC[C@@H]2C#N)c2cc[nH]c(=O)c2n1 (racemic) |
| 24 µM (≈ 7.71 µg/mL) | N#C[C@H]1CCC[C@H]1Nc1nc(-c2cn[nH]c2)nc2c(=O)[nH]ccc12 (racemic) |
| 8.6 µM (≈ 2.91 µg/mL) | N#C[C@H]1CCC[C@H]1Nc1nc(N2CCCCC2)nc2c(=O)[nH]ccc12 (racemic) |

More lines, now with the values behind:

| Compound | solubility kinetic |
| --- | --- |
| O=c1[nH]ccc2c(NC3CCCC3)ncnc12 | 318 µM (≈ 73.2 µg/mL) |
| N#C[C@H]1CCC[C@H]1Nc1nc(N2CCOCC2)nc2c(=O)[nH]ccc12 (racemic) | 51 µM (≈ 17.4 µg/mL) |
| O=c1[nH]ccc2c(NC3CCCCC3)ncnc12 | 225 µM (≈ 55 µg/mL) |
| N#C[C@H]1CCC[C@H]1Nc1nc(-c2ccccc2)nc2c(=O)[nH]ccc12 (racemic) | 11 µM (≈ 3.65 µg/mL) |

Assay: Apparent permeability of the compound from apical to basolateral side of MDCK cells
Type: ADME, cell-based, Canis lupus familiaris
Conditions: dog

| Papp A→B | Compound |
| --- | --- |
| 2.5 ×10⁻⁶ cm/s | O=c1[nH]ccc2c(NC3CCCC3)ncnc12 |
| 0.6 ×10⁻⁶ cm/s | CCc1nc(N[C@@H]2CCC[C@@H]2C#N)c2cc[nH]c(=O)c2n1 (racemic) |
| 0.2 ×10⁻⁶ cm/s | N#C[C@H]1CCC[C@H]1Nc1nc(-c2cn[nH]c2)nc2c(=O)[nH]ccc12 (racemic) |
